Assay type in all cases: cell-based
One test addresses T1, CRBN (Homo sapiens, UniProt Q96SW2).
T1 construct: expressed in transfected cells; host or cells: HEK293T
The test can be described thus: Competition Assay: MAPPIT-like, competition with trimethoprim-lenalidomide hybrid ligand for binding to CRBN in HEK293T cells. Conditions: protocol and reagents of Example 1; read-out: IC50 Competition.

A further test deals with T2, IKZF1 (Homo sapiens, UniProt Q13422+Q96SW2).
T2 construct: expressed in transfected cells; host or cells: HEK293T
The test can be described thus: Recruitment Assay (MAPPIT-like): IKZF1 recruitment, pSEL-CRBN+pMG1-IKZF1(isoform 7). Conditions: recruitment of IKZF1, protocol of Example 2; read-out: EC50_IKZF1. As for the experimental part: (§1) In this experimental set-up, cells are transfected with a construct encoding a CRBN-fusion protein and another one encoding a substrate-fusion protein. Test compound activity is assessed with increasing concentrations of test compounds (dose-response studies) to monitor the ability to promote CRBN-ligand-induced protein interaction.
(§2) Full size proteins are fused for each of the target proteins tested, except in the case of IKZF1 where isoform 7 is used, and BRD4, where isoform 3 is applied. For the study, the following construct combinations are used: IKZF1 recruitment: pSEL-CRBN+pMG1-IKZF1(isoform 7); ASS1 recruitment: pSEL-CRBN+pMG1-ASS1; SALL4 recruitment: pSEL-SALL4+pMG1-CRBN; DHFR recruitment: pCLG-DHFR+pMG1-CRBN; ESR1 recruitment: pSEL-CRBN+pMG1-ESR1; BRD4 recruitment: pSEL-CRBN+pMG1-BRD4(isoform 3). Cells are treated with erythropoietin (Epo; where pSEL-type receptor fusions constructs are used) or leptin (in the case pCLG-type receptor fusion constructs are applied) without or with the indicated dose of test compound at 24 hours after transfection. Luciferase activity is measured 24 hours after test compound treatment using the Luciferase Assay System kit (PROMEGA, Madison, Wis.) with an Ensight plate reader (PERKIN ELMER LIFE SCIENCES, Waltham, Mass.). Data points depict fold induction of the average luciferase activity of triplicate samples from Epo or leptin+test compound treated cells versus Epo or leptin only treated cells. Error bars represent standard deviations. Curves are fit using 4-parameter nonlinear regression in […] PRISM software.

Another test has as its target T3, ASS1 (Homo sapiens, UniProt P00966+Q96SW2).
T3 construct: Full size proteins are fused for each of the target proteins tested; expressed in transfected cells; host or cells: HEK293T
The test can be described thus: Recruitment Assay (MAPPIT-like): ASS1 recruitment, pSEL-CRBN+pMG1-ASS1. The conditions noted are these: recruitment of ASS1, protocol of Example 2; for EC50: read-out: EC50_ASS1. As for the experimental part: as §1, §2

The next test has as its target T4, SALL4 (Homo sapiens, UniProt Q96SW2+Q9UJQ4).
T4 construct: Full size proteins are fused for each of the target proteins tested; expressed in transfected cells; host or cells: HEK293T
Put plainly: Recruitment Assay (MAPPIT-like): SALL4 recruitment, pSEL-SALL4+pMG1-CRBN. Conditions: recruitment of SALL4, protocol of Example 2; read-out: EC50_SALL4. As for the experimental part: as §1, §2

Broadly, the IC50 is the midpoint of a concentration-inhibition curve. Regarding `Cc1cccc2c1CN(C1CCC(=O)NC1=O)C2=O` (stereo not drawn) [Compound C28558, 3-(4-methyl-1-oxo-isoindolin-2-yl)piperidine-2,6-dione], at CRBN, the IC50 was 50.4 nM. The EC50 on IKZF1 is 77.4 nM; on ASS1 it was 368 nM; at SALL4, < 13.7 nM.

Turning to `O=C1CCCC(N2Cc3c(cccc3[N+](=O)[O-])C2=O)C(=O)N1` (stereo not drawn) [Compound C29737, 3-(4-nitro-1-oxo-isoindolin-2-yl)azepane-2,7-dione], the EC50 at IKZF1 was determined as 1410 nM.

`O=C1CCC(N2Cc3c(ccc4c3OCO4)C2=O)C(=O)N1` (stereo not drawn) [Compound C67858, 3-(6-oxo-8H-[1,3]dioxolo[4,5-e]isoindol-7-yl)piperidine-2,6-dione]: on CRBN, the IC50 was 106 nM. Besides, the EC50 on IKZF1 was determined as 569 nM; at ASS1 it was 884 nM; at SALL4 it was 29.3 nM.

For the molecule `O=C1CCC(N2Cc3cc(NCC(=O)Nc4ccccc4)ccc3C2=O)C(=O)N1` (stereo not drawn) [Compound C35797, 2-[[2-(2,6-dioxo-3-piperidyl)-1-oxo-isoindolin-5-yl]amino]-N-phenyl-acetamide], the IC50 at CRBN amounted to 851 nM. The values for the EC50 at IKZF1 and on SALL4 were 1330 nM and 1080 nM, respectively. In addition, the “EC50_ASS1 (M)” value on ASS1 is “>>”.

For the molecule `N#CC1c2ccccc2C(=O)N1C1CCC(=O)NC1=O` (stereo not drawn) [Compound C39453, 2-(2,6-dioxo-3-piperidyl)-3-oxo-isoindoline-1-carbonitrile], the IC50 at CRBN is 7520 nM. In addition, the values for the EC50 at IKZF1 and on SALL4 were 17100 nM and 875 nM, respectively.

Take `Cc1cccc2nnn(C3CCC(=O)NC3=O)c(=O)c12` (stereo not drawn) [Compound C13247, 3-(5-methyl-4-oxo-1,2,3-benzotriazin-3-yl)piperidine-2,6-dione]: the IC50 at CRBN turned out to be 2290 nM. The EC50 at IKZF1 worked out at 2880 nM; at ASS1, 8550 nM; at SALL4, 402 nM.

Regarding `Nc1cccc2nnn(C3CCC(=O)NC3=O)c(=O)c12` (stereo not drawn) [Compound C59904, 3-(5-amino-4-oxo-1,2,3-benzotriazin-3-yl)piperidine-2,6-dione], the IC50 on CRBN is 704 nM. Besides, the values for the EC50 on IKZF1, at ASS1 and on SALL4 were 122 nM, 698 nM and 33 nM, respectively.

Regarding `CN(C)c1ccc2c(c1)CN(C1CCC(=O)NC1=O)C2=O` (stereo not drawn) [Compound C98103, 3-[5-(dimethylamino)-1-oxo-isoindolin-2-yl]piperidine-2,6-dione], at CRBN, the IC50 worked out at 145 nM. The EC50 was 1290 nM on IKZF1 and < 13.7 nM at SALL4. For the same molecule, on ASS1, the “EC50_ASS1 (M)” value is listed as “>>”.

In the case of `O=C(CNc1ccc2c(c1)CN(C1CCC(=O)NC1=O)C2=O)NCc1ccccc1` (stereo not drawn) [Compound C35856, N-benzyl-2-[[2-(2,6-dioxo-3-piperidyl)-1-oxo-isoindolin-5-yl]amino]acetamide], the IC50 at CRBN is 484 nM. The EC50 on IKZF1 is 1150 nM; on SALL4, 188 nM. For the same molecule, on ASS1, the “EC50_ASS1 (M)” value was “>>”.

On to `O=C1CCC(N2Cc3c(Cl)cccc3C2=O)C(=O)N1` (stereo not drawn) [Compound C24031, 3-(4-chloro-1-oxo-isoindolin-2-yl)piperidine-2,6-dione], for which, at CRBN, the IC50 is 11.5 nM. The EC50 at IKZF1 was 58.7 nM; on ASS1, 259 nM; on SALL4, < 13.7 nM.

On to `Cc1ccc2c(c1)CN(C1CCC(=O)NC1=O)C2=O` (stereo not drawn) [Compound C28577, 3-(5-methyl-1-oxo-isoindolin-2-yl)piperidine-2,6-dione], for which the IC50 on CRBN turned out to be 113 nM. Moreover, the values for the EC50 on IKZF1, on ASS1 and on SALL4 were 1610 nM, 653 nM and < 13.7 nM, respectively.

For `O=C1CCC(N2Cc3c(cccc3-c3ccccc3)C2=O)C(=O)N1` (stereo not drawn) [Compound C48014, 3-(1-oxo-4-phenyl-isoindolin-2-yl)piperidine-2,6-dione], the IC50 on CRBN was determined as 24.3 nM. The EC50 was 1240 nM at IKZF1, 921 nM at ASS1 and 62.1 nM at SALL4.

Consider `Cc1cccc2c(=O)n(C3CCC(=O)NC3=O)nnc12` (stereo not drawn) [Compound C35830, 3-(8-methyl-4-oxo-1,2,3-benzotriazin-3-yl)piperidine-2,6-dione], for which the IC50 on CRBN turned out to be 3460 nM. Besides, the EC50 at ASS1 worked out at 5560 nM; on SALL4, 588 nM.

On to `O=C(O)CNc1ccc2c(c1)CN(C1CCC(=O)NC1=O)C2=O` (stereo not drawn) [Compound C47995, 2-[[2-(2,6-dioxo-3-piperidyl)-1-oxo-isoindolin-5-yl]amino]acetic acid], for which the IC50 on CRBN stood at 3710 nM. Further, at ASS1, the “EC50_ASS1 (M)” value is reported as “>>”. The EC50 at SALL4 was determined as 518 nM.

Take `CN(C)C1c2ccccc2C(=O)N1C1CCC(=O)NC1=O` (stereo not drawn) [Compound C10981, 3-[1-(dimethylamino)-3-oxo-isoindolin-2-yl]piperidine-2,6-dione]: the concentration for half-maximal inhibition (IC50) on CRBN amounted to 7810 nM. For the same molecule, the “EC50_ASS1 (M)” value at ASS1 was “>>”. Further, on SALL4, the EC50 stood at 1460 nM.

As for `CCOC(=O)NCCNc1ccc2c(c1)CN(C1CCC(=O)NC1=O)C2=O` (stereo not drawn) [Compound C35754, ethyl N-[2-[[2-(2,6-dioxo-3-piperidyl)-1-oxo-isoindolin-5-yl]amino]ethyl]carbamate], at CRBN, the IC50 came to 737 nM. Besides, at ASS1, the “EC50_ASS1 (M)” value is listed as “>>”. In addition, the EC50 at SALL4 was found to be 278 nM.

Regarding `N#Cc1ccc(Nc2ccc3c(c2)CN(C2CCC(=O)NC2=O)C3=O)nn1` (stereo not drawn) [Compound C80378, 6-[[2-(2,6-dioxo-3-piperidyl)-1-oxo-isoindolin-5-yl]amino]pyridazine-3-carbonitrile], the IC50 at CRBN came out at 2210 nM. Also, the EC50 was determined as 9420 nM on ASS1 and 387 nM at SALL4.

As to `N#Cc1cccc2c1CN(C1CCC(=O)NC1=O)C2=O` (stereo not drawn) [Compound C48003, 2-(2,6-dioxo-3-piperidyl)-1-oxo-isoindoline-4-carbonitrile], the IC50 on CRBN was 622 nM. The “EC50_ASS1 (M)” value at ASS1 is on record as “>>”. At SALL4, the EC50 was determined as 581 nM.

Turning to `Nc1cccc2c1CN(C1CC(=O)NC1=O)C2=O` (stereo not drawn) [Compound C47930, 3-(4-amino-1-oxo-isoindolin-2-yl)pyrrolidine-2,5-dione], the EC50 at IKZF1 turned out to be 784 nM.

In the case of `O=C1CCC(N2Cc3cc(Nc4ncc5c(n4)COC5)ccc3C2=O)C(=O)N1` (stereo not drawn) [Compound C80380, 3-[5-(5,7-dihydrofuro[3,4-d]pyrimidin-2-ylamino)-1-oxo-isoindolin-2-yl]piperidine-2,6-dione], the concentration for half-maximal inhibition (IC50) on CRBN is 760 nM. In addition, the EC50 on IKZF1 worked out at 1780 nM; on SALL4, 9.89 nM.

Regarding `CCOC(=O)Nc1cccc2c1CN(C1CCC(=O)NC1=O)C2=O` (stereo not drawn) [Compound C22622, ethyl N-[2-(2,6-dioxo-3-piperidyl)-1-oxo-isoindolin-4-yl]carbamate], the IC50 on CRBN is 225 nM. The “EC50_ASS1 (M)” value on ASS1 was “>>”. In addition, the EC50 on SALL4 stood at 121 nM.

As for `NC(=O)c1cccc(NC(=O)CNc2ccc3c(c2)CN(C2CCC(=O)NC2=O)C3=O)c1` (stereo not drawn) [Compound C35811, 3-[[2-[[2-(2,6-dioxo-3-piperidyl)-1-oxo-isoindolin-5-yl]amino]acetyl]amino]benzamide], the IC50 at CRBN came to 2440 nM. Also, at ASS1, the “EC50_ASS1 (M)” value is “>>”. Moreover, the EC50 on SALL4 was found to be 641 nM.

For `O=C1CCC(N2Cc3cccc(F)c3C2=O)C(=O)N1` (stereo not drawn) [Compound C23066, 3-(7-fluoro-1-oxo-isoindolin-2-yl)piperidine-2,6-dione], at CRBN, the IC50 amounted to 248 nM. Besides, the “EC50_ASS1 (M)” value on ASS1 is given as “>>”. In addition, the EC50 at SALL4 turned out to be 88.2 nM.

Source of the values: patent US20230099031A1, “BIFUNCTIONAL AGENTS FOR PROTEIN RECRUITMENT AND/OR DEGRADATION” (Orionis Biosciences, Inc., priority 2019, published 2023).
